Paper PMC6891695, “Evaluation of Antifouling Potential and Ecotoxicity of Secondary Metabolites Derived from Red Algae of the Genus Laurencia” (Marine Drugs, 2019)

Columns and labels:
HEK293 cell line [1] = assay: HEK293 neutral red assay (lysosome activity); assay type: cell-based, human; conditions: for EC50: Homo sapiens, HEK293, Neutral red assay, 48 h incubation; for effect on lysosomal activity (in words): HEK293
Experimental: (§1) The RTL-W1 cell line, a non-transformed rainbow trout liver cell line that has already been used in environmental toxicity assays, was established from the normal liver of an adult rainbow trout by proteolytic dissociation of liver fragments. RTL-W1 cells were cultured in 75 cm^2 culture flasks (Orange Scientific, Braine l’Alleud, Belgium) at 20 °C in Leibovitz’s (L-15, Sigma-Aldrich, St. Louis, MO, USA) medium supplemented with 5% fetal bovine serum (FBS) and 1% L-glutamine in CO2-free incubator. For the cytotoxicity assays of the selected secondary metabolites, cells were seeded at 3 × 10^4 cells/well density in a 96-well tissue culture plate (Orange Scientific Braine l’Alleud, Belgium) in 100 μL culture medium/well for 2 days before the assays. Three different cytotoxicity protocols were used: 1) The alamar blue/resazurin fluorometric/colorimetric cell viability assay to assess the metabolic capacity and mitochondrial function; 2) the crystal violet cell viability assay for indirect quantification of cell death; and 3) the neutral red cell proliferation assay for lysosomal activity. Two days after seeding the cells, cultures were incubated with various concentrations of selected secondary metabolites at 20 °C for 48 h before cell viability was assessed. […] For the alamar blue/resazurin fluorometric/colorimetric cell viability assay, 100 μL of 3 μg/100 μL Resazurin sodium salt (Sigma-Aldrich, St. Louis, MO, USA) in incubation medium was added on each well and incubated under sterile conditions at 20 °C for 4 h. For the crystal violet cell viability assay, after 48 h of incubation with each secondary metabolite, the culture medium was aspirated and cells were washed twice with sterile dd. H2O. The final wash was aspirated and 50 μL of 0.5% (w/v) crystal violet staining solution (20% methanol in dd. H2O) was added to each well followed by incubation for 20 min at room temperature on a bench rocker with a frequency of 20 oscillations per minute. The staining solution was then aspirated and the plate was washed four times with sterile dd. H2O and left to air-dry without its lid for 3 h at room temperature. Next, 200 μL of methanol was added to each well, and the plate was incubated with its lid on for 20 min at room temperature on a bench rocker with a frequency of 20 oscillations per minute. For the neutral red cell proliferation assay, after 48 h of incubation with each secondary metabolite, the culture medium was aspirated and cells were washed twice with phosphate-buffered saline (PBS, pH 7.4). Cells were then incubated with 100 μL of a 40 μg/mL neutral red staining solution in culture medium at 20 °C for 4 h followed by two washes with 150 μL of PBS. Then cells were incubated with 100 μL neutral red destain solution (50% ethanol, 49% dd. H2O, 1% glacial acetic acid) for 10 min on a bench rocker with a frequency of 80 oscillations per minute. Absorbance was read at 570 nm for alamar blue/resazurin and crystal violet and at 540 nm for neutral red using a Tecan infinite M200 Pro microplate reader. For each assay and each secondary metabolite, a minimum of four independent dose–response experiments with three replicates each were carried out. Calculations were carried out using detailed formulas (AbCam, Cambridge, UK, and results were analyzed with GraphPad Prism v.6.
(§2) HEK293 cells, a human embryotic kidney cell line, were obtained from ATCC (ATCC® CRL-1573™) at passage 37 of the original clone and used at passage 38. Cells were cultured routinely in 75 cm^2 culture flasks (Orange Scientific, Braine l’Alleud, Belgium) at 37 °C (5% CO2) in DMEM cell culture medium (Biosera) supplemented with 10% FBS (Sigma-Aldrich, St. Louis, MO, USA) and 1% L-glutamine. All assay conditions and protocols were identical to those described above for RTL-W1 cells with the exception that incubations were carried out at 37 °C. […]

RTL-W1 cell line [2] = assay: RTL-W1 neutral red assay (lysosome activity); assay type: cell-based, rainbow trout; conditions: Oncorhynchus mykiss, 48 h incubation
Experimental: as §1, with “For the neutral red cell proliferation assay, after 48 h of incubation with each secondary metabolite, the culture medium was aspirated and cells were washed twice with phosphate-buffered saline (PBS, pH 7.4). Cells were then incubated with 100 μL of a 40 μg/mL neutral red staining solution in culture medium at 20 °C for 4 h followed by two washes with 150 μL of PBS. Then cells were incubated with 100 μL neutral red destain solution (50% ethanol, 49% dd. H2O, 1% glacial acetic acid) for 10 min on a bench rocker with a frequency of 80 oscillations per minute.” left out, “For each assay and each secondary metabolite, a minimum of four independent dose–response experiments with three replicates each were carried out.” left out, “v.6. […]” for “v.6.”

HEK293 cell line [3] = assay: HEK293 crystal violet assay (cell viability); assay type: cell-based, human; conditions: for cytotoxicity in crystal violet assay (in words): HEK293; for EC50: Homo sapiens, HEK293, Crystal violet assay, 48 h incubation
Experimental: as §1, §2

RTL-W1 cell line [4] = assay: RTL-W1 crystal violet assay (cell viability); assay type: cell-based, rainbow trout; conditions: for EC50: Oncorhynchus mykiss, RTL-W1, Crystal violet assay, 48 h incubation; for crystal violet assay EC50 (in words): RTL-W1
Experimental: as §1
(§3) For EC50 or IC50 (the concentration that results in 50% stimulation or inhibition relative to the control) calculations in GraphPad Prism v.6, all data were fitted to the curve according to the following models for normalized response: Y = 100/(1 + 10^((X − LogIC50))) or Y = 100/(1 + 10^((LogEC50 − X))) depending on the trend of the curve.

Chaetoceros gracilis = Chaetoceros gracilis toxicity (phytoplankton growth) assay; assay type: cell-based; conditions: for EC50: Chaetoceros neogracilis, 96 h
Experimental: For phytoplankton growth toxicity assays, the criterion for assay validity was that the cell count of the negative control after 96 h should be ≥2 × 10^5 cells/mL [40].
The centric marine diatom C. gracilis Schütt (strain CCMP1315) was grown photoautotrophically in autoclaved artificial seawater (sea salts; Sigma-Aldrich, St. Louis, MO, USA) (30‰) supplemented with F/2 (half-strength medium f as subsequently modified) in 100 mL medium at 20 °C and with ambient air bubbled in the media. By monitoring cell density, an adjusted culture of >1 × 10^6 cells/mL was used for the toxicity assays. At 96 h, a 0.9 mL aliquot of each treatment was sampled, mixed with 0.1 mL Lugol and cell density was counted. Experiments were assumed valid if cell count in the control after 96 h was […].
as §3

[5] = Artemia salina toxicity assay; assay type: in vivo; conditions: Artemia salina, in vivo, read-out: EC50 Artemia salina toxicity (mortality)
Experimental: The short-term toxicity assay with A. salina nauplii was used to determine the toxicity of secondary metabolites. Hatching of A. salina nauplii was carried out in ASW (35‰) using 0.5 g of cysts incubated in 500 mL seawater at a temperature of 25 ± 1 °C and lateral illumination (1000 Lux). All cysts were kept in continuous suspension with aeration and 24 h later hatched larvae (instar I) were harvested. Toxicity assays were carried out in three independent experiments in 24-well plates with four replicates of each tested concentration. Ten nauplii per well were transferred with a Pasteur pipette into the 24-well plates and each well was filled with 2 mL of ASW and 50 μL of various concentrations of the tested compounds in methanol. Control treatments received 50 μL of methanol. Plates were incubated in the dark at 25 ± 1 °C for 48 h. Mortality was assessed by recording the number of individuals with no movement of their appendages within 10 seconds and is expressed as the percentage of the total number of assessed individuals for each concentration.
as §3

| SMILES | EC50 (HEK293 cell line [1]) [µM] | EC50 (RTL-W1 cell line [2]) [µM] | cytotoxicity in crystal violet assay (in words) (HEK293 cell line [3]) | EC50 (HEK293 cell line [3]) [µM] | EC50 (RTL-W1 cell line [4]) [µM] | crystal violet assay EC50 (in words) (RTL-W1 cell line [4]) | inhibition of C. gracilis growth (in words) (Chaetoceros gracilis) | EC50 (Chaetoceros gracilis) [µM] | effect on lysosomal activity (in words) (HEK293 cell line [1]) | LC50 at 24 h [5] [µM] | LC50 at 48 h [5] [µM] |
| --- | --- | --- | --- | --- | --- | --- | --- | --- | --- | --- | --- |
| CC(C)[C@@H]1CC=C[C@H]2[C@H]3[C@](C)(CC[C@]12CBr)[C@@H](Br)CC[C@@]3(C)O [Bromosphaerol, reference compound] | 340 | 144 | mild cytotoxicity | 97.1 | 0.575 | sub-micromolar | very potent inhibitor of C. gracilis growth | 4.34 | – | – | – |
| C=CC(C)(O)CC[C@@H]1C(=C)CC[C@@H](Br)[C@@]1(C)CCC1OC1(C)C (stereo partly shown) [Compound 18] | > 1000 | 138 | – | > 1000 | 0.456 | sub-micromolar | – | 10.7 | not affected | 34.9 | 38.1 |
| CC1=C2CC[C@@](C)(Cl)[C@@H](Br)C[C@]2(C)[C@@H](C)[C@@H](Br)[C@@H]1O [Compound 9, perforenol] | > 1000 | > 1000 | mild cytotoxicity | 81.1 | 16 | – | – | 49.8 | not affected | 283 | 189 |
| C=C(C1CCC(C)(O)C(Br)C1)C1C(Br)C2C(CCC2(C)O)C1(C)C (stereo not shown) [Compound 19, neorogioldiol] | > 1000 | > 1000 | – | 434 | 12.8 | – | – | 352 | not affected | 31.5 | 304 |
